Experimental data from US11324803B2, “Methods and compositions for treatment of Gaucher Disease via modulation of C5a receptor” (Children's Hospital Medical Center, priority 2015, dated 2022).

Legend:
GCase = molecular target: T1, GCase (Mus musculus, UniProt P17439); test: CBE-induced GCase deficiency (pharmacologically-induced Gaucher disease) in mice; type: in vivo
T1 construct: endogenous in cells; host or cells: WT, C5aR1-/-, C5aR2-/-, Fcer1g-/- and Fcgr2b-/- mice, in vivo
T1 sequence (P17439 20-515): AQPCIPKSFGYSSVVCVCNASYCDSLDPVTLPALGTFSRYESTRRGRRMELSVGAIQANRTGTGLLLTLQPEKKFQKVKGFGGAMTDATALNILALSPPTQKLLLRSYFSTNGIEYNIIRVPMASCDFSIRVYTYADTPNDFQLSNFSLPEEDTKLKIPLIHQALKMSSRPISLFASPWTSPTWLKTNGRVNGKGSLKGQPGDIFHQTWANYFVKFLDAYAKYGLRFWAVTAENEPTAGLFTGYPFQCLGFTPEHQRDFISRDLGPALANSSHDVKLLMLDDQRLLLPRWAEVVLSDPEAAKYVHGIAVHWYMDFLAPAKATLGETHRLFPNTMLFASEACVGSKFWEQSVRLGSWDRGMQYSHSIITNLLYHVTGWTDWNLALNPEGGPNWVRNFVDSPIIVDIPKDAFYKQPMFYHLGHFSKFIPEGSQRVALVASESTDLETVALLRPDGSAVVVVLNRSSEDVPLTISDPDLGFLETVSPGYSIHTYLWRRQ
From the text: Sera from human patients with Gaucher disease (n=10) and healthy volunteers (n=15) were from the freezer and de-identified. Human patients with Gaucher disease were diagnosed at Cincinnati Children's Hospital Medical Center (CCHMC). […] The study was approved by the ethics committee at CCHMC. In vivo C5aR1 deficiency or blockade in 9V/null mice and in a CBE-induced mouse model of Gaucher disease. To assess the impact of genetic or pharmacological targeting of C5aR1 on the inflammatory response in Gaucher disease, WT (n=10) and C5aR1^−/− mice (n=10) were treated with conduritol B epoxide (CBE), which is an irreversible inhibitor of acid β-glucosidase^24. More specifically, both mouse strains were injected intraperitoneally (i.p.) with 100 mg CBE/kg body weight or vehicle (PBS)/day for up to 60 days, which was the termination point of these experiments. After 60 days of the indicated treatment with CBE, immune cells (MΦs, DCs, and T cells) were purified from lung of these mouse strains and used for measurement of GC, costimulatory molecules, and several of the pro-inflammatory cytokines. In additional experiments, WT (n=15) or 9V/null mice (n=15) were injected with 100 μl of the C5aR antagonist A8^Δ71-73 (i.p. 0.5 mg/kg) or vehicle (100 μl, PBS) on five consecutive days. Five days after the final C5aRA treatment, liver, spleen and lung were separated and measured for GC accumulation. Further, DCs and CD4^+ T cells were purified from the lung of the indicated mouse strains and measured for costimulatory molecule expression and the production of pro-inflammatory cytokines. Preparation of tissue cells. Liver, spleen, lung and BM were harvested aseptically. Single cell suspensions from liver and lung were obtained from minced pieces that were treated with Liberase Cl (0.5 mg/mL) and DNase (0.5 mg/mL) in RPMI (45 min, 37° C.). Single cell suspensions from spleen were obtained by grinding and then filtration through a 70-micron cell strainer. […] For BM cells, femurs, tibias and humeri were flushed with sterile phosphate buffered saline (PBS), followed by RBC lysis (155 mM NH4Cl, 10 mM NaHCO3, 0.1 mM EDTA), passage through a strainer. Cells were then pelleted by centrifugation at 350×g. Viable cells were counted using a Neubauer chamber and trypan blue exclusion. DCs, MΦs, and CD4^+ T lymphocytes were purified from single cell suspensions of liver, spleen, and lung using CD11c, CD11b, and CD4 (L3T4) microbeads according to the manufacturer's protocol. The purity of the cells was ˜90%-95%.
To determine levels of IgG antibodies to GC or GS in mice and human Gaucher patients, 10 μg of GC or GS were dissolved in 1 ml of methanol and water to a final concentration of 10 μg/ml. One hundred microliters of this GC solution (1 μg/well) were used to coat a 96 well ELISA plate. In case of GS, plates were first filled with 300 µl of poly L lysine solution (0.1 mg/ml). After 10 minutes, excess solution was removed and plates were thoroughly rinsed with sterile water and allowed to dry for several hours. Such plates were then coated with 100 μl of indicated GS solution (1 μg/well). Both of these GC and GS coated plates were kept overnight at room temperature followed by three washings with PBS containing 1% Tween-20 (PBST). Test sera (100 μl; 1:100) isolated from WT (n=15) and 9V/null mice (n=15), CBE-treated (n=10) and untreated WT mice (n=10), as well as healthy humans (n=15) and untreated Gaucher disease patients (n=10), and control antibodies to GC were loaded into the lipid-coated wells followed by incubation for 1.5 hours at RT. […]

C5a receptor 1 = molecular target: T2, C5a receptor 1 (Rattus norvegicus, UniProt P97520); conditions: introduced orally; cited from earlier work
T2 construct: host or cells: rats, in vivo
T2 sequence (P97520 1-352): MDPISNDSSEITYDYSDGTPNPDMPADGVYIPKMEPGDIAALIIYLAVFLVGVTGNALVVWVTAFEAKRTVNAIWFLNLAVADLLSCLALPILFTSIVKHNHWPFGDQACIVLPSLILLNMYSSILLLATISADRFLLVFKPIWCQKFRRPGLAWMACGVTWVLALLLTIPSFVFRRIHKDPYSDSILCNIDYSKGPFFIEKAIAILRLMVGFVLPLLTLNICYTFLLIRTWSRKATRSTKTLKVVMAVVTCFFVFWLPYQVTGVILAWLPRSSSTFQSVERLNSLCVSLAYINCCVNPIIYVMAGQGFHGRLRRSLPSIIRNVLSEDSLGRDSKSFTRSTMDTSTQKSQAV

DCs and CD4+ T cells [1] = test: DC / CD4+ T cell co-culture with C5a: cytokine production by ELISA; type: cell-based, mouse; conditions: cells from 9V/null mice vs WT, C5a 32 nM, 48 h co-culture
Protocol: (§1) To assess the GC-induced C5a influence on alteration in costimulatory molecules, DCs and CD4^+ T cells purified from lung of 9V/null and background matched WT mice (n=15, each group) were stimulated ex vivo in the presence and absence of different concentration of C5a (0,8,16, and 32 nM) for 24 hours at 37° C. DCs and CD4^+ T cells were purified liver, spleen, and lung of CBE-induced chemical model of Gaucher disease in C5aR1^−/− (n=10) and background-matched WT mice (n=10). These DCs were used to perform FACS staining with antibodies to CD40, CD80, and CD86, whereas CD4^+T cells were used to perform FACS staining with antibodies to CD40L and CD69. To assess the GC induced C5a impact on cytokines and chemokines production, DCs and CD4^+T cells (1:2.5 ratio) purified from lung of 9V/null (n=15) and background-matched WT mice (n=15) were co cultured in the presence and absence of C5a (32 nM) for 48 hours in complete medium. In additional experiments, indicated ratios ([…]) of DCs and CD4^+T cells purified from lung of CBE treated and untreated WT and C5aR1^−/− mice (n=10/each group) were co-cultured for 48 hrs in complete medium. Supernatant of these experiments were used to measure […], TNF-α, IL-1β, IL-6, IL-12p40, IL-12p70, IL-23, IL-17A/F and IL-23 by ELISA. […]

DCs and CD4+ T cells [2] = test: C5a stimulation of DCs and CD4+ T cells: co-stimulatory molecule expression; type: cell-based, mouse; conditions: WT and 9V/null cells, C5a 0, 8, 16, 32 nM, 24 h
Protocol: as §1

[3] = WT mice treated for 30 days with CBE vs PBS

O[C@H]1[C@H](O)[C@@H](O)[C@@H]2O[C@@H]2[C@@H]1O (racemic) [CBE, conduritol B epoxide]
survival after daily injections of CBE for 60 days (GCase; C5aR1−/− mice, 100 mg CBE/kg/day i.p.): survived
time of death under daily CBE injections (GCase; C5aR2−/− mice, 100 mg CBE/kg/day i.p.): 29 to 35 days
time of death under daily CBE injections (GCase; Fcer1g−/− mice, 100 mg CBE/kg/day i.p.): 29 to 36 days
time of death under daily CBE injections (GCase; Fcgr2b−/− mice, 100 mg CBE/kg/day i.p.): 29 to 36 days
serum levels of C5a (GCase; [3]): elevated
serum levels of IgG2a and IgG2b antibodies to GC (GCase; [3]): significantly elevated
time of death under daily CBE injections (GCase; WT mice, 100 mg CBE/kg/day i.p.): 29 to 35 days

AcF-[OP(D-Cha)WR]
effect in rat models of acute inflammation (C5a receptor 1): beneficial

HC-[OP(D-Cha)WR]
effect in rat models of acute inflammation (C5a receptor 1): beneficial

PMX53
effect in rat models of acute inflammation (C5a receptor 1): beneficial

B1: C5a: small peptide of the complement anaphylatoxin family, cleaved from C5 (protein, UniProt P01031 678-751, looked up)
C5a anaphylatoxin: TLQKKIEEIAAKYKHSVVKKCCYDGACVNNDETCEQRAARISLGPRCIKAFTECCVVASQLRANISHKDMQLGR
modifications: C5a anaphylatoxin
notes: small peptide of the complement anaphylatoxin family, cleaved from C5
production of IFN-γ, TNF-α, IL-1β, IL-6, and IL-17 (DCs and CD4+ T cells [1]): dramatically increased
expression levels of CD40, CD80, CD86 and CD40L and CD69 (DCs and CD4+ T cells [2]): increased
